Reference: patent US12679878B2, “CRF2 receptor agonists and their use in therapy” (SANOFI, priority 2020, dated 2026)
Converted amounts (≈) assume the structure as drawn. Read-outs that look alike come from different tables or passages of the source. Starred links: 1 amine or outer side, 2 acyl side, 3 side chain; linkers in the order of their positions; H or OH if unused. Non-standard residues stand in square brackets, D forms with d. Residues, ends and D or L forms follow the SMILES beside them. Groups on a side chain read outwards from the residue. *: point of attachment. C20 diacid = O=C(O)CCCCCCCCCCCCCCCCCCC(=O)*; C18 diacid = O=C(O)CCCCCCCCCCCCCCCCC(=O)*; γGlu = O=C(O)[C@H](CCC(=O)[*:2])N[*:1]; AEEA = NCCOCCOCC(=O)O; Aib = CC(C)(N)C(=O)O

Legend:
human CRF2α receptor = molecular target: T1, human CRF2α receptor (Homo sapiens, UniProt Q13324); test: cAMP agonism at human CRF2 α receptor in TeloHEAC cells (Example 7); format: cell-based; details: cAMP HTRF, TeloHEAC cells stably expressing human CRF2 α, 0% HSA; read-out: EC50 [nM], 0% HSA
T1 construct: expressed in transfected cells; host or cells: TeloHEAC
T1 sequence (Q13324 1-411): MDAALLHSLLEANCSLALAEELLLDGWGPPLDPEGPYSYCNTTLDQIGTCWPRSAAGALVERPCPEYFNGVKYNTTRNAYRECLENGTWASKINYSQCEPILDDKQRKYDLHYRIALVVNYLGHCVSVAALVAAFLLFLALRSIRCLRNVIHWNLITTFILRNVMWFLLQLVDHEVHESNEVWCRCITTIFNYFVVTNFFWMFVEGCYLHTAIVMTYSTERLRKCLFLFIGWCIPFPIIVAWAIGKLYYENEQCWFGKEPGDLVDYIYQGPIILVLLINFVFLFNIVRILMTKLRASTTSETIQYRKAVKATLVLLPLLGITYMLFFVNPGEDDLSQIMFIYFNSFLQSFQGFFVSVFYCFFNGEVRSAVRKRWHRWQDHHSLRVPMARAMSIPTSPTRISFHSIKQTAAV
Method in brief: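 Thawed frozen stably transfected cells in HBSS/20 mM HEPES (0% or 0.1% HSA) plus 2 mM IBMX were exposed to compound at 2000 cells/well for 30 min at room temperature. Intracellular cAMP was read by HTRF (665/620 nm ratio) after 1 h lysis; EC50 was derived with 1000 nM urocortin 2 set as 100%.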

rat CRF2R α receptor = test: cAMP agonism at rat CRF2R α receptor in A7R5 rat aortic smooth muscle cells (Example 8); format: cell-based; details: cAMP HTRF, A7R5 rat aortic smooth muscle cell line, 0% HSA
Method in brief: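 Thawed cryopreserved A7R5 cells in HBSS/20 mM HEPES (0 or 0.1% HSA) with 2 mM IBMX, 2000 cells/well, were exposed to compound for 30 min at room temperature. cAMP was read by HTRF (665/620 nm ratio) after 1 h with lysis reagents. Activity was normalised to 1000 nM urocortin 2 as 100%, and EC50 was taken as the concentration giving 50% of maximal activation.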

CRF1R receptor = molecular target: T2, CRF1R receptor (Homo sapiens, UniProt P34998); test: cAMP activity at anti-target CRF1R, CRF1R-overexpression CHO cell line (Example 9); format: cell-based; details: for EC50: 0% HSA
T2 construct: host or cells: CHO-K1 clone 2
T2 sequence (P34998 24-415): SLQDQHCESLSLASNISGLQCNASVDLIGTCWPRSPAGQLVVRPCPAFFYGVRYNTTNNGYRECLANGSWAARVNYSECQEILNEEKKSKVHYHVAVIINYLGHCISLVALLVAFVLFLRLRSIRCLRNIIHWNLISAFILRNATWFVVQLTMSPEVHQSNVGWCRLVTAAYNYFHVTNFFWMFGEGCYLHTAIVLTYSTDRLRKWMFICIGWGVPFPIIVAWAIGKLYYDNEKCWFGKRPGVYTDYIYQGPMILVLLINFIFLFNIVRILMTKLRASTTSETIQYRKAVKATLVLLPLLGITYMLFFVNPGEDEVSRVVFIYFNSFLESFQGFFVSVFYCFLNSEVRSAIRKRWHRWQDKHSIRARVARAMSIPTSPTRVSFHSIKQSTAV
Method in brief: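 cAMP accumulation was read by HTRF after 30 min at room temperature of compound treatment. Cells were cryopreserved CHO cells overexpressing CRF1R, plated at 2000/well in IBMX (2 mM)-containing HBSS/HEPES buffer with 0 or 0.1% HSA. Activity was normalized to 1000 nM UCN2 as 100%.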

[1] = Solubility in buffer systems by UPLC-UV (Example 13); format: physicochemical
Method in brief: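 The supernatant was diluted 1:10 and quantified by UPLC-UV peak area against a reference standard curve, correcting for sequence-based extinction coefficients.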

[2] = CRF1R-overexpression CHO cell line
[3] = CRF1R-overexpression CHO cell line, read-out: Emax (%)
[4] = pH 4.5, Solubility in Buffer B [mg/ml]
[5] = pH 7.4, Solubility in Buffer C [mg/ml]

| EC50 (human CRF2α receptor) [nM] | EC50 (rat CRF2R α receptor) [nM] | EC50 (CRF1R receptor; [2]) [nM] | Emax (CRF1R receptor; [3]) [%] | solubility at 1 h [1, 4] [µg/mL] | solubility at 1 h [1, 5] [µg/mL] | Structure (SMILES) | Emax (CRF1R receptor; CHO) [%] | solubility at 1 h ([1]; Buffer B: 100 mM acetate buffer, pH 4.5, 2.7 mg/ml m-cresol, target 10 mg/ml, read-out: Solubility in Buffer B) [µg/mL] | solubility at 1 h ([1]; Buffer C: 100 mM phosphate buffer, pH 7.4, target 10 mg/ml, read-out: Solubility in Buffer C) [µg/mL] |
| --- | --- | --- | --- | --- | --- | --- | --- | --- | --- |
| 0.38 | 0.94 | > 1000 | 3.31 | > 10600 | > 9500 | CC[C@H](C)[C@H](NC(=O)[C@H](CCC(N)=O)NC(=O)[C@H](CCCCNC(=O)COCCOCCNC(=O)COCCOCCNC(=O)CC[C@H](NC(=O)CCCCCCCCCCCCCCCCCCC(=O)O)C(=O)O)NC(=O)[C@@H](NC(=O)[C@H](CCCCN)NC(=O)[C@@H](NC(=O)[C@@H]1CCCN1C(=O)[C@@H](NC(=O)[C@H](CC(=O)O)NC(=O)[C@H](CC(C)C)NC(=O)[C@H](CO)NC(=O)[C@H](CC(C)C)NC(=O)[C@@H](NC(=O)[C@@H](N)Cc1ccccc1)[C@@H](C)O)C(C)C)[C@@H](C)O)[C@@H](C)CC)C(=O)N[C@@H](CC(C)C)C(=O)N[C@@H](CC(C)C)C(=O)N[C@@H](CCCCN)C(=O)N[C@@H](CCC(N)=O)C(=O)N[C@@H](CCC(N)=O)C(=O)N[C@@H](CCCCN)C(=O)N[C@@H](CCC(N)=O)C(=O)N[C@@H](CCCCN)C(=O)N[C@@H](CCCCN)C(=O)N[C@@H](CCC(=O)O)C(=O)N[C@@H](CCCNC(=N)N)C(=O)N[C@@H](CCC(N)=O)C(=O)N[C@@H](CCC(N)=O)C(=O)N[C@@H](C)C(=O)N[C@@H](CCC(=O)O)C(=O)N[C@H](C(=O)N[C@@H](CC(N)=O)C(=O)N[C@@H](CCCCN)C(=O)N[C@@H](CCC(N)=O)C(=O)N[C@@H](CC(C)C)C(=O)N[C@@H](CC(C)C)C(=O)N[C@@H](CCC(=O)O)C(=O)N[C@@H](CCCNC(=N)N)C(=O)N[C@H](C(N)=O)C(C)C)[C@@H](C)O [compound 61] (H-FTLSLDVPTKIK([AEEA-AEEA-γGlu-C20 diacid])QILLKQQKQKKERQQAETNKQLLERV-NH2) | – | – | – |
| 0.57 | 0.66 | > 1000 | 9.18 | 6800 (≈ 1320 µM) | 7500 (≈ 1450 µM) | CC[C@H](C)[C@H](N)C(=O)N[C@H](C(=O)N[C@@H](CC(C)C)C(=O)N[C@@H](CO)C(=O)N[C@@H](CC(C)C)C(=O)N[C@@H](CC(=O)O)C(=O)N[C@H](C(=O)N1CCC[C@H]1C(=O)N[C@H](C(=O)N[C@@H](CCCCN)C(=O)N[C@@H](CC(C)C)C(=O)N[C@@H](CCCCNC(=O)COCCOCCNC(=O)COCCOCCNC(=O)CC[C@H](NC(=O)CCCCCCCCCCCCCCCCC(=O)O)C(=O)O)C(=O)N[C@@H](CCC(N)=O)C(=O)N[C@H](C(=O)N[C@@H](CC(C)C)C(=O)N[C@@H](CC(C)C)C(=O)N[C@@H](CCC(=O)O)C(=O)N[C@@H](CCC(N)=O)C(=O)N[C@@H](CCC(=O)O)C(=O)N[C@@H](CCCCN)C(=O)N[C@@H](CCC(N)=O)C(=O)N[C@@H](CCCCN)C(=O)N[C@@H](CCCCN)C(=O)N[C@@H](CCC(N)=O)C(=O)N[C@@H](CCCNC(=N)N)C(=O)N[C@@H](CCC(=O)O)C(=O)N[C@@H](CCC(N)=O)C(=O)N[C@@H](C)C(=O)N[C@@H](CCC(=O)O)C(=O)N[C@H](C(=O)N[C@@H](CC(N)=O)C(=O)N[C@@H](CCCCN)C(=O)N[C@@H](CCC(N)=O)C(=O)N[C@H](C(=O)N[C@@H](CC(C)C)C(=O)N[C@@H](C)C(=O)N[C@@H](CCC(N)=O)C(=O)N[C@H](C(N)=O)C(C)C)[C@@H](C)CC)[C@@H](C)O)[C@@H](C)CC)[C@@H](C)CC)C(C)C)C(C)C [compound 67] (H-IVLSLDVPIKLK([AEEA-AEEA-γGlu-C18 diacid])QILLEQEKQKKQREQAETNKQILAQV-NH2; N-terminus assumed) | – | – | – |
| 0.46 | 3.99 | > 1000 | 8.74 | 18900 (≈ 3700 µM) | > 8800 | CC[C@H](C)[C@H](N)C(=O)N[C@H](C(=O)N[C@@H](CC(C)C)C(=O)N[C@@H](CO)C(=O)N[C@@H](CC(C)C)C(=O)N[C@@H](CC(=O)O)C(=O)N[C@H](C(=O)N1CCC[C@H]1C(=O)N[C@H](C(=O)N[C@@H](CCCCN)C(=O)N[C@@H](CC(C)C)C(=O)N[C@@H](CCCCNC(=O)COCCOCCNC(=O)COCCOCCNC(=O)CC[C@H](NC(=O)CCCCCCCCCCCCCCCCC(=O)O)C(=O)O)C(=O)N[C@@H](CCC(N)=O)C(=O)N[C@H](C(=O)N[C@@H](CC(C)C)C(=O)N[C@@H](CC(C)C)C(=O)N[C@@H](CCC(=O)O)C(=O)N[C@@H](CCC(N)=O)C(=O)N[C@@H](CCC(=O)O)C(=O)N[C@@H](CCCCN)C(=O)N[C@@H](CCC(N)=O)C(=O)N[C@@H](CCCCN)C(=O)NC(C)(C)C(=O)N[C@@H](CCC(N)=O)C(=O)N[C@@H](CCCNC(=N)N)C(=O)N[C@@H](CCC(=O)O)C(=O)N[C@@H](CCC(N)=O)C(=O)N[C@@H](C)C(=O)N[C@@H](CCC(=O)O)C(=O)N[C@H](C(=O)N[C@@H](CC(N)=O)C(=O)N[C@@H](CCCCN)C(=O)N[C@@H](CCC(N)=O)C(=O)N[C@H](C(=O)N[C@@H](CC(C)C)C(=O)N[C@@H](C)C(=O)N[C@@H](CCC(N)=O)C(=O)N[C@H](C(N)=O)C(C)C)[C@@H](C)CC)[C@@H](C)O)[C@@H](C)CC)[C@@H](C)CC)C(C)C)C(C)C [compound 79] (H-IVLSLDVPIKLK([AEEA-AEEA-γGlu-C18 diacid])QILLEQEKQK[Aib]QREQAETNKQILAQV-NH2; N-terminus assumed) | – | – | – |

| Structure (SMILES) | EC50 (human CRF2α receptor) [nM] | EC50 (rat CRF2R α receptor) [nM] | EC50 (CRF1R receptor; [2]) [nM] | Emax (CRF1R receptor; [3]) [%] | solubility at 1 h [1, 4] [µg/mL] | solubility at 1 h [1, 5] [µg/mL] | Emax (CRF1R receptor; CHO) [%] | solubility at 1 h ([1]; Buffer B: 100 mM acetate buffer, pH 4.5, 2.7 mg/ml m-cresol, target 10 mg/ml, read-out: Solubility in Buffer B) [µg/mL] | solubility at 1 h ([1]; Buffer C: 100 mM phosphate buffer, pH 7.4, target 10 mg/ml, read-out: Solubility in Buffer C) [µg/mL] |
| --- | --- | --- | --- | --- | --- | --- | --- | --- | --- |
| CC[C@H](C)[C@H](NC(=O)[C@H](CCC(N)=O)NC(=O)[C@H](CCC(=O)O)NC(=O)[C@H](CC(C)C)NC(=O)[C@H](CC(C)C)NC(=O)[C@H](CCC(N)=O)NC(=O)[C@H](CCCCN)NC(=O)[C@H](CC(N)=O)NC(=O)[C@H](CCCCN)NC(=O)[C@H](CCC(=O)O)NC(=O)[C@H](C)NC(=O)[C@H](CCC(N)=O)NC(=O)[C@H](CCC(N)=O)NC(=O)[C@H](CCCNC(=N)N)NC(=O)[C@H](CCC(=O)O)NC(=O)[C@H](CCCCN)NC(=O)[C@H](CCCCN)NC(=O)[C@H](CCC(N)=O)NC(=O)[C@H](CCCCN)NC(=O)[C@H](CCC(N)=O)NC(=O)[C@H](CCC(N)=O)NC(=O)[C@H](CCCCN)NC(=O)[C@H](Cc1ccccc1)NC(=O)[C@H](CC(C)C)NC(=O)[C@@H](NC(=O)[C@H](CCC(N)=O)NC(=O)[C@H](CCCCNC(=O)COCCOCCNC(=O)COCCOCCNC(=O)CC[C@H](NC(=O)CCCCCCCCCCCCCCCCCCC(=O)O)C(=O)O)NC(=O)[C@@H](NC(=O)[C@H](CCCCN)NC(=O)[C@@H](NC(=O)[C@@H]1CCCN1C(=O)[C@@H](NC(=O)[C@H](CC(=O)O)NC(=O)[C@H](CC(C)C)NC(=O)[C@H](CO)NC(=O)[C@H](CC(C)C)NC(=O)[C@@H](NC(=O)[C@@H](N)Cc1ccccc1)[C@@H](C)O)C(C)C)[C@@H](C)O)[C@@H](C)CC)[C@@H](C)CC)C(N)=O [compound 58] (H-FTLSLDVPTKIK([AEEA-AEEA-γGlu-C20 diacid])QILFKQQKQKKERQQAEKNKQLLEQI-NH2; N-terminus assumed) | 0.28 | 0.72 | – | – | – | – | 9.12 | > 9500 | > 9400 |
